Assay results as given in paper PMC5654968 (NPJ Systems Biology and Applications, 2017).
Where two headings read alike, the source gives them in different places.

Key:
[1] = Plasma PK of major maoto compounds by LC-MS/MS after oral administration of maoto; assay type: in vivo, rat; settings: for Tmax: read-out: Tmax
Method: 1 (7:00-19:00). Rats were maintained and used for the experiments in accordance
2 with the Guidelines for the Care and Use of Laboratory Animals of Tsumura &
3 CO. All experimental procedures were carried out upon approval from the
4 Laboratory Animal Committee of Tsumura & CO.
8 administered to 16-h fasted rats (n=3). […]
14 and 4 g/10mL/kg) were determined by LC-MS/MS. Based on a literature search,
16 amygdalin, prunasin, scopoletin, l-ephedrine, d-pseudoephedrine,
1 Plasma PK data were analyzed by noncompartmental modeling using
2 Phoenix WinNonlin (version 6.3, Certara L.P., St. Louis, MO, USA) to determine
3 various PK constants including Cmax, tmax, t1/2, and AUC0–last. The t1/2 was divided
4 by loge2/ke, where ke is the rate constant of terminal elimination (at least three
5 data points on the descending linear limb). […]

[2] = assay type: in vivo, rat
[3] = Sprague-Dawley, rat, plasma, po, 1 g/kg
[4] = Sprague-Dawley, rat, plasma, po, 2 g/kg
[5] = Sprague-Dawley, rat, plasma, po, 4 g/kg
[6] = PM/P (polyI:C+maoto vs polyI:C), 2h
[7] = PM/P (polyI:C+maoto vs polyI:C), 4h

Row | Structure (SMILES) | log2FC of plasma level ([2]; M/C (maoto vs control), 2h) | log2FC of plasma level ([2]; M/C (maoto vs control), 4h) | log2FC of plasma level ([2]; P/C (polyI:C vs control), 2h) | log2FC of plasma level ([2]; P/C (polyI:C vs control), 4h) | log2FC of plasma level [2, 6] | log2FC of plasma level [2, 7] | further results
1 | CC(C(O)c1ccccc1)N(C)C (racemic) [dl-Methylephedrine] |  |  |  |  |  |  | AUC(0-t) [1, 3]: 0.0187 µg·h/mL; half-life [1, 3]: 5.96 h; Cmax ([1]; Sprague-Dawley, rat, plasma, po, 1 g/kg, read-out: Cmax): 0.0166 µg/mL; Tmax [1, 3]: 0.25 h; AUC(0-t) [1, 4]: 0.046 µg·h/mL; half-life [1, 4]: 1.99 h; Cmax ([1]; Sprague-Dawley, rat, plasma, po, 2 g/kg, read-out: Cmax): 0.0225 µg/mL; Tmax [1, 4]: 0.25 h; AUC(0-t) [1, 5]: 0.0949 µg·h/mL; half-life [1, 5]: 11.5 h; Cmax ([1]; Sprague-Dawley, rat, plasma, po, 4 g/kg, read-out: Cmax): 0.037 µg/mL; Tmax [1, 5]: 0.25 h
2 | O=c1ccc2ccc(O)cc2o1 [7-hydroxycoumarin] |  |  |  |  |  |  | detection in rat plasma by targeted LC-MS/MS ([1]; oral maoto 2 g/kg): not detected; AUClast ([1]; rat plasma, oral maoto 1 g/kg): BQL; Cmax ([1]; rat plasma, oral maoto 1 g/kg): BQL; AUClast ([1]; rat plasma, oral maoto 2 g/kg): BQL; Cmax ([1]; rat plasma, oral maoto 2 g/kg): BQL; AUClast ([1]; rat plasma, oral maoto 4 g/kg): BQL; Cmax ([1]; rat plasma, oral maoto 4 g/kg): BQL
3 | CC/C=C\C=C\C(O)C/C=C\C/C=C\C/C=C\C/C=C\CCC(=O)O (stereo not drawn) [16-HDoHE] | 0.10 | -0.60 | -0.12 | 0.38 | 0.16 | -0.76 | 
4 | CCCCC(O)/C=C\C/C=C\C/C=C\C/C=C\CCCC(=O)O (stereo not drawn) [16-HETE] | 0.13 | -0.23 | 0.13 | 0.70 | -0.02 | -0.94 | 
5 | CCC(O)C(O)C/C=C\C/C=C\C/C=C\C/C=C\CCCC(=O)O (stereo not drawn) [17,18-DiHETE] | 0.60 | -0.17 | 0.19 | 0.32 | -0.30 | -0.38 | 
6 | CC/C=C\CC(O)/C=C/C=C\C/C=C\C/C=C\C/C=C\CCC(=O)O (stereo not drawn) [17-HDoHE] | 0.30 | -0.62 | -0.12 | 0.47 | 0.18 | -0.79 | 
7 | CCCC(O)C/C=C\C/C=C\C/C=C\C/C=C\CCCC(=O)O (stereo not drawn) [17-HETE] | 0.20 | 0.07 | 0.59 | 0.13 | 0.42 | 0.16 | 
8 | CCC(O)/C=C/C=C\C/C=C\C/C=C\C/C=C\CCCC(=O)O (stereo not drawn) [18-HEPE] | 0.08 | -0.59 | 0.02 | 0.07 | -0.16 | -0.77 | 
9 | CCC(O)CC/C=C\C/C=C\C/C=C\C/C=C\CCCC(=O)O (stereo not drawn) [18-HETE] | 0.16 | -0.08 | 0.25 | -0.05 | -0.26 | -0.07 | 
10 | CC(O)CCC/C=C\C/C=C\C/C=C\C/C=C\CCCC(=O)O (stereo not drawn) [19-HETE] | 1.44 | 0.46 | 0.66 | -0.33 | 0.46 | 0.72 | 
11 | CCC(O)/C=C/C=C\C/C=C\C/C=C\C/C=C\C/C=C\CCC(=O)O (stereo not drawn) [20-HDoHE] | -0.10 | -0.54 | -0.13 | 0.44 | 0.06 | -0.71 | 
12 | O=C(O)CCC/C=C\C/C=C\C/C=C\C/C=C\CCCCCO [20-HETE] | 0.51 | -0.20 | -0.23 | 0.52 | 0.70 | 0.06 | 
13 | O=C(O)CCC/C=C\C/C=C\C/C=C\C/C=C\CCCCC(=O)O [20-carboxy-AA] | 0.40 | 0.17 | 0.03 | 0.32 | 0.28 | 0.00 | 
14 | CCCCC/C=C\C/C=C\C/C=C\C/C=C\CCCC(=O)O [AA, arachidonic acid] | 0.19 | -0.02 | 0.12 | 0.14 | -0.10 | -0.04 | 
15 | CC/C=C\C/C=C\C/C=C\C/C=C\C/C=C\C/C=C\CCC(=O)O [DHA, docosahexaenoic acid] | 0.46 | -0.10 | 0.22 | 0.09 | 0.05 | 0.03 | 
16 | CC/C=C\C/C=C\C/C=C\C/C=C\C/C=C\CCCC(=O)O [EPA, eicosapentaenoic acid] | 0.56 | -0.10 | 0.28 | -0.05 | 0.04 | 0.03 | 
17 | CCCCC/C=C\C\C=C/C=C/C=C/[C@@H](SC[C@H](N)C(=O)O)[C@@H](O)CCCC(=O)O [LTE4] | -0.95 | -1.00 | 1.04 | 0.58 | -0.91 | -0.51 | 
18 | CCCCC/C=C\C\C=C/C=C/C=C/[C@@H](SCC(NC(C)=O)C(=O)O)[C@@H](O)CCCC(=O)O (stereo partly drawn) [N-acetyl-LTE4] | -1.85 | -1.41 | 2.21 | 1.28 | -2.45 | -0.96 | 
19 | CCCCC[C@H](O)/C=C/[C@H]1C(=O)C[C@H](O)[C@@H]1C/C=C\CCCC(=O)O [PGD2] | -0.26 | -0.58 | 0.28 | 0.92 | -0.11 | -1.25 | 
20 | CC/C=C\C[C@H](O)/C=C/[C@H]1C(=O)C[C@H](O)[C@@H]1C/C=C\CCCC(=O)O [PGD3] |  |  |  |  |  |  | log2FC of plasma level [2]: -0.55; log2FC of plasma level ([2]; first value of an incomplete line, time (2h or 4h) not assignable): -0.03
21 | CCCCC[C@H](O)/C=C/[C@H]1[C@H](O)CC(=O)[C@@H]1C/C=C\CCCC(=O)O [PGE2] | -0.31 | 0.22 | 0.59 | 0.59 | -0.15 | 0.22 | 
22 | CCCCC[C@H](O)/C=C/[C@@H]1[C@@H](C/C=C\CCCC(=O)O)[C@@H](O)C[C@H]1O [PGF2α] | 0.30 | -0.20 | 0.24 | -0.04 | 0.14 | -0.13 | 
23 | CCCCC[C@H](O)/C=C/[C@H]1OC(O)C[C@H](O)[C@@H]1C/C=C\CCCC(=O)O (stereo partly drawn) [TXB2] | 1.36 | -0.87 | 0.70 | 0.28 | 0.92 | -0.46 | 
